Reference: patent publication US9096832B2, “Differentiation of human embryonic stem cells” (LifeScan, Inc., priority 2007, dated 2015)

Columns and labels:
[1] = test system: human embryonic stem cell line H9; assay: Formation of pancreatic endocrine cells expressing Nkx2.2 (PCR); type: cell-based
Procedure: Cells were continuously cultured for another 3 to 5 days in basal medium with retinoic acid at 1 μM, alone or with bFGF. RNA samples were harvested from cells at various time points along this process to help evaluate the directed differentiation of the cells. Furthermore, culture medium and factors were regularly removed and replenished throughout the differentiation protocol.

[2] = test system: human embryonic stem cell line H9; assay: Immunocytochemistry of definitive endoderm markers after activin A treatment; type: cell-based; details: activin A for five days
Text: (§1) The level of expression of definitive endoderm markers was examined by PCR (FIG. 1), FACS (results summarized in Table II), and immunohistochemistry (FIG. 2).
Levels of expression for HNF-3beta, Sox-17, and GATA4 were low in untreated cells, approximately 10 to 20% of all cells.

[3] = test system: human embryonic stem cell line H9; assay: CXCR4 expression by FACS, Activin A +/- Wnt3a, Example 34; type: cell-based; details: end of the 5th day, H9 passage 54
Procedure: The effect that Wnt-3a treatment has on cytokine expression was analyzed using a protein array. Cells of the human embryonic stem cell line H9 were cultured according to the methods described in Example 15. At passage 54, cells were differentiated in the presence of 100 ng/mlActivinA+/−10 ng/mlWnt3a for 2 days in 0.5% FBS DMEM/F12.
At the end of the 5th day, CXCR4 expression was determined by FACS for each treatment group.

[4] = test system: human embryonic stem cell line H7; assay: FACS of protein markers after activin A treatment (Table IIB); type: cell-based
Text: as §1
CXCR4 positive cells were also highly positive for C-kit, EPCAM, CD99, and negative for CD9. The expression pattern for these markers was consistent among all three hES cell lines examined (Table IIB for H7 and Table IIC for H1). […] In parallel, almost 100% of the differentiated cells were […] (FIG. 2).
Adhered cells were removed from culture plates by five-minute incubation with TrypLE™ Express solution (Invitrogen, CA). Released cells were resuspended in human embryonic stem cell culture medium and recovered by centrifugation, followed by washing and resuspending the cells in a staining buffer consisting of 2% BSA, 0.05% sodium azide in PBS (Sigma, MO). As appropriate, the cells were Fc-receptor blocked for 15 minutes using a 0.1% γ-globulin (Sigma) solution. […] Controls included appropriate isotype matched antibodies, unstained cells, and cells stained only with secondary conjugated antibody. All incubations with antibodies were performed for 30 mins at 4° C. after which the cells were washed with the staining buffer. Samples that were stained with unconjugated primary antibodies were incubated for an additional 30 mins at 4° C. with secondary conjugated PE or —APC labeled antibodies. See Table I for a list of secondary antibodies used. Washed cells were pelleted and resuspended in the staining buffer, and the cell surface molecules were identified using a FACS Array (BD Biosciences) instrument, collecting at least 10,000 events.

H9 cells = assay: Immunofluorescence staining of DE markers, activin A +/- Wnt-3a; type: cell-based, human
Text: Day 5 DE cultures of H9 cells were stained according to Example 10 for SOX-17, HNF-3B, GATA-4, N-cadherin, and E-cadherin. All nuclei were counter stained with DAPI.

Substance	increase of Nkx2.2 expression compared to samples without activin A ([1]; 50 ng/ml activin A with 50 ng/ml basic FGF and 1 μM Retinoic Acid)	Pdx1 expression ([1]; activin A for the first three days of culture)	cells positive for Sox17 and HNF-3beta (immunocytochemistry) [2]	differentiated cells still Oct4 positive (immunocytochemistry) [2]	cells expressing CXCR4 (FACS) [3]	CXCR4+ ([4]; 1-day AA 100 ng/ml)	CXCR4+ C-Kit+ ([4]; 1-day AA 100 ng/ml)	CXCR4+ CD9+ ([4]; 1-day AA 100 ng/ml)	CXCR4+ EPCAM+ ([4]; 1-day AA 100 ng/ml)	CXCR4+ ([4]; 3-day AA 100 ng/ml)	CXCR4+ C-Kit+ ([4]; 3-day AA 100 ng/ml)	CXCR4+ CD9+ ([4]; 3-day AA 100 ng/ml)	CXCR4+ EPCAM+ ([4]; 3-day AA 100 ng/ml)	CXCR4+ ([4]; 5-day AA 100 ng/ml)	CXCR4+ C-Kit+ ([4]; 5-day AA 100 ng/ml)	CXCR4+ CD9+ ([4]; 5-day AA 100 ng/ml)	CXCR4+ EPCAM+ ([4]; 5-day AA 100 ng/ml)	nuclei stained positive for SOX-17, HNF-3beta, and GATA-4 (H9 cells; 20 ng/ml Wnt-3a, Day 5 DE cultures)	expression of N-cadherin (H9 cells; addition of Wnt-3a)	expression of e-cadherin (H9 cells; addition of Wnt-3a)
Activin A: activin A (a member of the TGFβ superfamily), R&D Systems; 'w/o wnt' in Table VII = 100 ng/ml Activin A without Wnt3a	about 35 fold	maintained Pdx1 expression at a level similar to samples containing no activin A	30-40%	~100%	1%	6%	2.97%	8.13%	14.58%	38%	31.56%	24.11%	36.67%	65.5%	55.21%	2.1%	54.5%			
Wnt-3a																		significantly larger number	enhanced expression	significant loss of expression
